Data reported in patent US20210181182A1, “METHOD FOR IDENTIFICATION OF PERTURBAGENS OF PARTICULAR BIOLOGICAL PROCESSES AND CELL SYSTEMS WITHIN LIVING CELLS” (priority 2018, published 2021).
Counter-ions that a name gives are not always drawn. Like-named read-outs stand apart in the source and are kept apart here. Marks after values point to notes of the source that are not given here.

Columns and labels:
[1] = test system: mitochondrial electron transport chain (mETC); assay: FACTORIAL assay: similarity of TFAP to the consensus (invariant) mETC TFAP; type: cell-based, human
[2] = test system: mitochondria membrane potential; settings: cited from earlier work
DNA damage = assay: FACTORIAL assay: weak / strong DNA damage TFAP clusters; type: cell-based, human; settings: HepG2, 24 h, all tested concentrations
HG19/HepG2 cells = type: cell-based
Protocol: Cell viability was evaluated by the XTT (2,3-Bis-(2-Methoxy-4-Nitro-5-Sulfophenyl)-2H-Tetrazolium-5-Carboxanilide) assay (ATCC) in HG19/HepG2 cells. As a baseline, cells are used that were treated with corresponding dilutions of the vehicle (DMSO). The viability data are an average of two replicates. The viability threshold was set at 80% viability.

Akt kinase = assay: FACTORIAL assay: similarity of TFAP to the invariant signature of Akt inhibitors; type: cell-based, human; settings: for retrieved by querying the TFAP database with the invariant signature for AKT inhibitors: database of over 30,000 signatures
HDAC = assay: FACTORIAL assay: similarity of TFAP to the consensus HDAC inhibitor TFAP; type: cell-based, human; settings: for retrieved by querying the Attagene dataset with the HDAC TFAP: HepG2, ToxCast TFAP dataset
HepG2 cells = assay: FACTORIAL assay: transition of the TFAP signature of glitazones with concentration; type: cell-based, human; settings: HepG2, 24-hour treatment
[3] = HepG2, 24 h incubation, each value at the concentration [uM]
[4] = HepG2, 1-hour incubation at concentrations below 60 μM

Compound	Pearson correlation with the mETC TFAP, r [1, 3]	MMP assay hitCall [2, 4]	also measured
CCc1cc(Cc2cc(CC)cc(C(C)(C)C)c2O)c(O)c(C(C)(C)C)c1	0.827	1	
O=S(=O)(c1ccc(Cl)cc1)c1ccc(Cl)cc1 [4,4′-Dichlorodiphenyl sulfone]	0.810	1	
O=c1[nH]cc(F)c(=O)[nH]1 [5-fluorouracil]			DNA damage TFAP elicited (weak or strong damage cluster) (DNA damage): only the weak damage TFAP
COP(=S)(OC)SCn1nnc2ccccc2c1=O [Azinphos-methyl]	0.823	0*	
CO/C=C(/C(=O)OC)c1ccccc1Oc1cc(Oc2ccccc2C#N)ncn1 [Azoxystrobin]	0.894	0*	
CCCCC(CC)COP(=O)(O)OCC(CC)CCCC (centres unmarked) [Bis(2-ethylhexyl) phosphate]	0.838	1	
CCC(C)(c1ccc(O)cc1)c1ccc(O)cc1 [Bisphenol B]	0.861	1	
Oc1ccc(Cc2ccc(O)cc2)cc1 [Bisphenol F]	0.835	1	
Cc1ccc(-c2cc(C(F)(F)F)nn2-c2ccc(S(N)(=O)=O)cc2)cc1 [Celecoxib, reference compound]			Pearson correlation with the mETC TFAP, r ([1]; 24 h): 0.883
N.N.[Cl][Pt][Cl] [Cisplatin, reference compound]	0.824	0*	cell numbers at the end of incubation (HG19/HepG2 cells): significantly reduced cell numbers
CN(C)CCCN1c2ccccc2CCc2ccc(Cl)cc21 [Clomipramine hydrochloride, reference compound]		0*	Pearson correlation with the mETC TFAP, r ([1]; 24 h): 0.806
C[S+](C)[O-] [DMSO]			retrieved by querying the TFAP database with the invariant signature for AKT inhibitors (Akt kinase): retrieved
CC/C(=C(/CC)c1ccc(O)cc1)c1ccc(O)cc1 [Diethylstilbestrol, reference compound]		1	Pearson correlation with the mETC TFAP, r ([1]; 24 h): 0.812
CCOC(=O)[C@@H](C)Oc1ccc(Oc2nc3ccc(Cl)cc3o2)cc1 [Fenoxaprop-P-ethyl]	0.827	0	
CC(C)NC[C@@H](C(=O)N1CCN(c2ncnc3c2[C@H](C)C[C@H]3O)CC1)c1ccc(Cl)cc1 [GDC-0068, Ipatasertib, reference compound]			similarity r to the invariant signature of AKT inhibitors (Akt kinase): > 0.80
Cn1nccc1Nc1nccc(-c2ccn([C@H](CO)c3ccc(Cl)c(F)c3)c(=O)c2)n1 [GDC-0994]			signature match at higher concentrations (HDAC inhibitors) (HDAC; HepG2, 24 h, above 2.2 uM): matched the invariant signature of HDAC inhibitors
COC(=O)N(C(=O)N1CO[C@@]2(C(=O)OC)Cc3cc(Cl)ccc3C2=N1)c1ccc(OC(F)(F)F)cc1 [Indoxacarb]	0.887	1	
NC(=O)N/N=C/c1ccc([N+](=O)[O-])o1 [Nitrofurazone, reference compound]		0*	Pearson correlation with the mETC TFAP, r ([1]; 24 h): 0.856
CO/C=C(/C(=O)OC)c1ccccc1COc1cccc(C(F)(F)F)n1 [Picoxystrobin]	0.885	1	

Compound	Pearson correlation with the mETC TFAP, r [1, 3]	MMP assay hitCall [2, 4]	also measured
CC(COc1ccc(Oc2ccccc2)cc1)Oc1ccccn1 (centres unmarked) [Pyriproxyfen]		0	
CC(C)=CC1C(C(=O)OCc2coc(Cc3ccccc3)c2)C1(C)C (centres unmarked) [Resmethrin]		1	
CCN(CC)c1ccc2c(-c3ccccc3C(=O)O)c3ccc(=[N+](CC)CC)cc-3oc2c1.[Cl-] [Rhodamine B]	0.810	0	
C=C(C)[C@H]1Cc2c(ccc3c2O[C@@H]2COc4cc(OC)c(OC)cc4[C@@H]2C3=O)O1 [Rotenone, reference compound]		1	
CCc1cccc(C)c1N(C(=O)CCl)[C@@H](C)COC [S-Metolachlor]	0.856	0	
O.O.O.O.[Na+].[O-]c1ccccc1-c1ccccc1 [Sodium 2-phenylphenate tetrahydrate]	0.807	1	
Cc1cc(C)c(C2=C(OC(=O)CC(C)(C)C)C3(CCCC3)OC2=O)c(C)c1 [Spiromesifen]	0.816	1	
CCCN(CC)CC1COC2(CCC(C(C)(C)C)CC2)O1 (centres unmarked) [Spiroxamine]		0	
COC(=O)Nc1ccc(Cl)c(Cl)c1 [Swep]	0.927	1	
CO[C@@H]1[C@H](OC(=O)NC(=O)CCl)CC[C@]2(CO2)[C@H]1[C@@]1(C)O[C@@H]1CC=C(C)C [TNP-470]		0	
Nc1c2c(nc3ccccc13)CCCC2 [Tacrine, reference compound]		0*	Pearson correlation with the mETC TFAP, r ([1]; 24 h): 0.810
CCCCCCCCCCCCCC[N+](C)(C)C [Tetradonium bromide]		0	
CC(C)=CC1C(C(=O)OCN2C(=O)C3=C(CCCC3)C2=O)C1(C)C (centres unmarked) [Tetramethrin]		1	
COC(=O)c1c(C(F)F)nc(C(F)(F)F)c(C2=NCCS2)c1CC(C)C [Thiazopyr]		0	
COC(=O)NC(=S)Nc1ccccc1NC(=S)NC(=O)OC [Thiophanate-methyl]		0*	
O=C(O)Cc1cc(I)c(Oc2ccc(O)c(I)c2)c(I)c1 [Tiratricol, reference compound]		0	
Cc1ccc(S(=O)(=O)NC(=O)NN2CCCCCC2)cc1 [Tolazamide, reference compound]		0	
CC(C)(C)C(=O)C(Oc1ccc(Cl)cc1)n1cncn1 (centres unmarked) [Triadimefon]		0	
CC(C)(C)C(O)C(Oc1ccc(Cl)cc1)n1cncn1 (centres unmarked) [Triadimenol]		0	

Compound	Pearson correlation with the mETC TFAP, r [1, 3]	MMP assay hitCall [2, 4]	also measured
CCC[CH2][Sn]([Cl])([CH2]CCC)[CH2]CCC [Tributyltin chloride]			MMP assay hitCall [2]: 1
COP(=O)(OC)C(O)C(Cl)(Cl)Cl (centres unmarked) [Trichlorfon]		0	
O=C(Nc1ccc(Cl)cc1)Nc1ccc(Cl)c(Cl)c1 [Triclocarban]		1	
Oc1cc(Cl)ccc1Oc1ccc(Cl)cc1Cl [Triclosan]		1	
CON=C(C(=O)OC)c1ccccc1CON=C(C)c1cccc(C(F)(F)F)c1 [Trifloxystrobin]		1	
O=P(Oc1ccccc1)(Oc1ccccc1)Oc1ccccc1 [Triphenyl phosphate]		1	
O=P(OCC(Br)CBr)(OCC(Br)CBr)OCC(Br)CBr (centres unmarked) [Tris(2,3-dibromopropyl) phosphate]			MMP assay hitCall [2]: 1
COP(=O)(OC)O/C(=C\Cl)c1cc(Cl)c(Cl)cc1Cl [Z-Tetrachlorvinphos]	0.892	1	
CN(C)c1ccc(C(=N)c2ccc(N(C)C)cc2)cc1 [auramine, auramine O]			DNA damage TFAP elicited (weak or strong damage cluster) (DNA damage): only the strong damage TFAP
CCO [ethanol]			retrieved by querying the TFAP database with the invariant signature for AKT inhibitors (Akt kinase): retrieved
O=c1[nH]c(=O)n([C@H]2C[C@H](O)[C@@H](CO)O2)cc1F [floxuridine]			DNA damage TFAP elicited (weak or strong damage cluster) (DNA damage): only the weak damage TFAP
CC(C)C(=O)O [isobutyric acid]			retrieved by querying the Attagene dataset with the HDAC TFAP (HDAC): retrieved
Fc1ccc([C@@H]2CCNC[C@H]2COc2ccc3c(c2)OCO3)cc1 [paroxetine, reference compound]			retrieved by querying the TFAP database with the invariant signature for AKT inhibitors (Akt kinase): retrieved
CCc1ccc(CCOc2ccc(CC3SC(=O)NC3=O)cc2)nc1 (centres unmarked) [pioglitazone]			concentration of transformation of primary TFAP into secondary TFAP (threshold for off-target effects) (HepG2 cells): 180 µM
CC(/C=C/C(=O)NO)=C\[C@@H](C)C(=O)c1ccc(N(C)C)cc1 [trychostatin]			retrieved by querying the Attagene dataset with the HDAC TFAP (HDAC): retrieved
Bisphenol A glycidyl methacrylate	0.939	1	
Chlorpyrifos oxon	0.827	1	
Dinocap	0.897	1	
Mancozeb	0.867	0*	
